# Experimental data from US12433875B2, “(R)-4-(1-(6-(4-(trifluoromethyl)benzyl)-6-azaspiro[2.5]octane-5-carboxamido)-cyclopropyl) benzoic acid or its salt also in polymorphic form a for use in the prevention of heterotopic ossification” (ROTTAPHARM BIOTECH S.R.L., priority 2019, dated 2025).
# Assays:
# [1] = tested on: Male Lewis rats (CIA model, heterotopic bone formation); assay: Collagen Induce Arthritis (CIA) in rats, histological scores; type: in vivo, rat
# Description: Collagen Induce Arthritis (CIA) in rats is among the most common models used to mimic human arthritis and especially Rheumatoid Arthritis (RA). In general the joint response seen in this model is quite similar to that observed in human pathology, in terms of inflammation, bone erosion and cartilage damage. Nevertheless, this model differs from Rheumatoid Arthritis, since it is endowed with a consistent periosteal woven bone formation (immature bone) that is not a usual feature of human RA (maybe, less than 10% of patients have this type of bone reaction). On the contrary, this disordered apposition of new bone is the distinctive feature of heterotopic ossification. Therefore, this model was used to study the effect of the compound of the invention in Pathological heretopic osteogenesis.
# Male Lewis rats were immunized by intradermal injection at the base of the tail with an emulsion containing 150 μg of bovine collagen type II (bCII) in complete Freund's adjuvant (CFA) or received an injection with incomplete Freund's adjuvant (sham group). Three weeks after the first immunisation, animals were boosted with the same procedure. Three days after booster injection, arthritis had developed in all animals but the sham group. The administration of the compound (1) Form A started at this time point and lasted for 14 days (once a day, unless otherwise indicated).
# The paws were fixed in 10% neutral buffered formalin (Bio-Optica, Milan, Italy) and subsequently decalcified in EDTA for 4 weeks. Samples were dehydrated in an ethanol series and embedded in paraffin. At least three non-consecutive sections for each paw were blindly scored at the level of the tarsus, metatarsus and calcaneus for the following histological features of woven bone. Two independent pathologists performed histopathology on blinded slides. The data of right and left hind limbs were summed for each rat.
# In FIG. 3 the dose-response curve for the compound of the invention is reported. the compound was administered once a day for 14 days on the site where the pathological bone formation was expected as induced in the CIA model in rats. The dose were 1 mg/Kg, 3 mg/kg and 10 mg/kg. The data were expressed as the median (boxed area), 95% interquartile range (whiskers), and individual data (symbols) of the histological scores for heterotopic bone formation (osteogenesis) given by two pathologists unaware of the treatment groups on a following scale: 0=absent; 1=mild/focal; 2=moderate/multifocal; 3=severe/multifocal to diffuse. Since arthritis was bilateral, the scores for each rat was the sum of the two leg scores. […] The compound reached the maximal activity at 10 mg/kg.
# The data were expressed as the median histological scores for heterotopic bone formation (osteogenesis) as described for FIG. 3. […] As for osteogenesis, the data reported in this graph were the median (boxed area), 95% interquartile range (whiskers), and individual data (symbols) of the histological scores for synovial hyperplasia (oedema) given by two pathologists unaware of the treatment groups on a following scale: 0=normal: 1-2 layers of synovial lining cells, 1=mild: focal to multifocal 3-4 layers of synovial lining cells and/or mild proliferation of subsynovial tissue, 2=moderate: focal to mutlitfocal >4-6 layers of synovial lining cells and/or moderate proliferation of subsynovial tissue, 3=severe: multifocal to diffuse >6-8 layers of synovial lining cells and/or severe proliferation of subsynovial tissue. Since arthritis was bilateral, the scores for each rat is the sum of the two leg scores. This underline a preferential and surprising effect of (R)-4-(1-(6-(4-(trifluoromethyl)benzyl)-6-azaspiro[2.5]octane-5-carboxamido)cyclopropyl)benzoic acid on the heterotopic bone formation, […].
# The free acid form has been assayed in the rat CIA model as already described for its sodium salt (Form A). […]
# [2] = tested on: Male DBA/1 mice (CIA model); assay: CIA in mice, histology of heterotopic bone formation; type: in vivo; details: 60 mg/kg once daily for 10 days, FIG. 9
# Protocol: CIA in mice is another very popular translational model to mimic human arthritis. […] Male DBA/1 mice were immunized by intradermal injection at the base of the tail with an emulsion of 200 μg of bCII in CFA containing 3 mg/ml Mycobacterium tuberculosis. Non-immunized mice served as the negative control of disease. Animals were monitored by visual inspection for appearance of peripheral edema. […] Upon onset, animals were recruited and randomized. Recruitment was given a cut-off at day 40. Upon recruitment, arthritis clinical score was assigned, and edema was measured via caliper. Mice were randomized into the following groups: vehicle, 30 mg/kg the form A of the sodium salt of (R)-4-(1-(6-(4-(trifluoromethyl)benzyl)-6-azaspiro[2.5]octane-5-carboxamido)cyclopropyl)benzoic acid, 60 mg/kg the form A of the sodium salt of (R)-4-(1-(6-(4-(trifluoromethyl)benzyl)-6-azaspiro[2.5]octane-5-carboxamido)cyclopropyl)benzoic acid and 60 mg/kg naproxen. Animals received the test drugs once daily for 10 days. Histology was performed as described for rats.
smiles,measurement,setting,value
"O=C(O)c1ccc(C2(NC(=O)[C@H]3CC4(CCN3Cc3ccc(C(F)(F)F)cc3)CC4)CC2)cc1 [free acid, (R)-4-(1-(6-(4-(trifluoromethyl)benzyl)-6-azaspiro[2.5]octane-5-carboxamido)cyclopropyl)benzoic acid]",potency in controlling osteogenesis compared with tofacitinib,[1]; free acid orally 15 mg/kg once a day vs tofacitinib 5 or 25 mg/kg b.i.d.,superior
"COc1ccc2cc([C@H](C)C(=O)O)ccc2c1 [naproxen, reference compound]",new heterotopic bone formation (histology),[2],not able to significantly affect new heterotopic bone formation
"CS(=O)(=O)c1ccc(C2=C(c3ccccc3)C(=O)OC2)cc1 [rofecoxib, reference compound]",control of the inflammatory response (edema; histological scores for synovial hyperplasia),"[1]; 15 mg/kg each, FIG. 6b",equally effective
"C[C@@H]1CCN(C(=O)CC#N)C[C@@H]1N(C)c1ncnc2[nH]ccc12 [tofacitinib, reference compound]",effect in controlling osteogenesis relative to the free acid at 15 mg/kg QD,[1]; tofacitinib 25 mg/kg b.i.d. (daily dose more than three times higher),reached the same effect in controlling osteogenesis
